Test results: publication PMC10544015 (Journal of Medicinal Chemistry, 2023)
Bridge positions count the residues as written; N and C are the ends. Square brackets hold non-standard residues; d marks the D form. Triazole bridges read from a SMILES are 1,4-linked. Peptide text beside a SMILES is read from it. Lys(N3) = [N-]=[N+]=NCCCC[C@H](N)C(=O)O; Pra = C#CC[C@H](N)C(=O)O; Ahx = NCCCCCC(=O)O

Experiments:
[1] = circular dichroism; settings: PBS (10 mM phosphate, 137 mM NaCl, 2.7 mM KCl); pH 7.4; rt °C; 100 uM
[2] = molecular target: T1, Panx1 channels (Mus musculus, UniProt Q9JIP4); assay: Yo-Pro-1 dye uptake assay in B16-BL6 cells; assay type: cell-based; settings: for decrease of HOS-induced Yo-Pro-1 uptake: 100 µM, 30 min HOS
Description: The ability of the two previously identified lead compounds, SBL-PX1–42 and SBL-PX1-44, to affect the cellular uptake of ions and small molecules through Panx1 channels was evaluated in Yo-Pro-1 uptake assays. Yo-Pro-1 is a small fluorescent dye of 629 Da able to diffuse into cells through open Panx1 channels and emit green fluorescence when binding to nucleic acids in the cells.[66],[67] A representative example showing Yo-Pro-1 uptake over time is given in the Supporting Information (Figure S4). As expected, HOS induced a rapid Yo-Pro-1 uptake, which continued to increase gradually over time. […] While a small nonsignificant inhibition (14%) of Yo-Pro-1 uptake was observed when cells were exposed to 100 μM of ^10Panx1, the same concentration of the SBL-PX1-42 or SBL-PX1-44 analogues decreased Yo-Pro-1 uptake by 26 and 27%, respectively (Figure 3E). […] Among other possibilities, the reduced efficacy of the peptidomimetics in Yo-Pro-1 uptake assays, as compared to ATP release assays, may be attributed to the difference in size between ATP and Yo-Pro-1 or to the different repartition of charges in the two molecules.
B16-BL6 cells were plated on 96-well plates and grown until confluency. […] Cells were then incubated in the HOS solution containing the aforementioned compounds. Yo-Pro-1 (5 μM, Life Technologies) was added to the cells, and fluorescence was continuously recorded for 30 min with FDSS/μCELL Functional Drug Screening System (Hamamatsu Photonics). Yo-Pro-1 uptake in each condition was expressed as a percentage of HOS-induced Yo-Pro-1 uptake. […] Triplicates were performed for each independent experiment.

[3] = system: B16-BL6 cells; assay: LDH cytotoxicity assay in B16-BL6 cells; assay type: cell-based, mouse; settings: peptides 100 to 6.25 µM, Pbn 2.5 mM, HOS solution
[4] = Circular dichroism spectroscopy (helicity); assay type: physicochemical; settings: PBS, 20 to 90 °C
Description: Spectra were measured with a JASCO J-715 CD spectropolarimeter equipped with a temperature controller using a 1 mm path length quartz cuvette and a scan rate of […]. The spectra were recorded in the wavelength range of 190–260 nm with a resolution and a bandwidth of 0.5 and 1.0 nm, respectively. The sensitivity and scan rate of the spectrometer were set to 100 mdeg and 50 nm min^–1, respectively. Samples were prepared in phosphate-buffered saline (PBS, 10 mM phosphate, 137 mM sodium chloride, 2.7 mM potassium chloride, pH 7.4, at room temperature) to the final concentration of 100 μM with or without 2,2,2-trifluoroethanol (TFE). CD spectra were averaged over 3–5 scans with the baseline subtracted from analogous conditions as those for the samples and converted to the mean residue ellipticity. Helicity was calculated as previously reported (see the Supporting Information).[52]

[5] = In vitro proteolytic stability in human plasma; assay type: in vitro ADME
Description: The proteolytic stability of the peptides was determined through in vitro stability assays in human plasma, as previously reported.[31],[89] Briefly, a stock solution of the peptide was prepared at a concentration of 1–2 mm in Milli-Q water and was used for further dilutions. Prior to the actual stability testing, the selectivity of the assay and stability of the working solutions were evaluated in parallel with an assessment of the linearity, accuracy, and precision of the method using three separately prepared calibration curves. The samples were analyzed by RP-HPLC on an Agilent 1200 series gradient HPLC system in combination with an EC HPLC column EC 150/2 NUCLEODUR (C18 HTec, 3 μm length: 150 mm, ID: 2 mm. Macherey-Nagel). The half-lives of the peptides were calculated by interpolating the data based on the obtained calibration curve. Afterward, the log concentrations as a function of time were transferred to a semi-log chart. Metabolites were identified by reanalyzing the samples using LC-MS on the same system previously described.[31]

[6] = molecular target: T2, Panx1 channels (Homo sapiens, UniProt Q96RD7); assay: HOS-induced ATP release assay in EA.hy926 endothelial cells; assay type: cell-based; settings: for inhibition at 100 µM: EA.hy 926, read-out: % ATP release inhibition at 100µM (in EA.hy926 cells)
T2 construct: host or cells: EA.hy926 human endothelial cells
Description: Similar to B16-BL6 cells, a 2–3-fold enhancement of ATP release from EA.hy926 cells was observed upon HOS stimulation (Figure 7E). However, the absolute levels of ATP release were lower in these endothelial cells (around 300 vs 500–600 nM in B16-BL6 cells). As expected, Pbn reduced HOS-induced ATP release from EA.hy926 cells, albeit by a lower fraction than the one observed in B16-BL6 cells (Figure 7E vs7A). The reason for this different efficacy of Pbn is unknown but may be due to its nonspecific action on other ATP release channels or transporters,[68] of which the expression naturally varies among different cell types. […] The water-soluble double-stapled ^10Panx1 peptidomimetic SBL-PX1-206 reduced HOS-induced ATP release from EA.hy926 cells by about 25% at 12.5 μM. […] Stapled and double-stapled ^10Panx1 analogues were also not cytotoxic when tested at 100 and 12.5 μM in EA.hy926 cells (Supporting Information, Figure S8).
(§1) Triplicates were performed for each independent experiment.

[7] = molecular target: T1, Panx1 channels; assay: HOS-induced ATP release assay in B16-BL6 cells; settings: for inhibition at 100 µM: B16-BL6, read-out: % ATP release inhibition at 100µM (in B16-BL6 cells)
[8] = system: H9c2 cells; assay: ATP release assay in Panx1-lacking H9c2 cells (specificity); assay type: cell-based, rat; settings: peptides 100 or 12.5 µM, Pbn 2.5 mM, 30 min HOS
Excerpt: The cardiomyoblast cell line (H9c2) was chosen to assess the specificity of the stapled ^10Panx1 analogues. Panx1 mRNA was not found in undifferentiated H9c2 cells or after differentiation into cardiomyocyte-like cells, while it was readily detected in our positive controls (kidney and liver samples; Supporting Information, Figure S5B). The absence of Panx1 protein expression was confirmed by Western blot analysis in both undifferentiated and differentiated H9c2 cells (Supporting Information, Figure S5C) as well as by immunostaining on H9c2 cells (Supporting Information, Figure S5D). […] Of note, the low concentration of ATP release in H9c2 cells compared to B16-BL6 cells (47 vs 513 nM, respectively, see dotted line in Supporting Information, Figure S5E) cannot be attributed to low cellular content of the metabolite because a high level of ATP was found in the supernatant (1170 nM) when cells were lysed with Triton X-100.
as §1

[9] = Water solubility (observation); assay type: physicochemical

T2 sequence (Q96RD7 whole entry): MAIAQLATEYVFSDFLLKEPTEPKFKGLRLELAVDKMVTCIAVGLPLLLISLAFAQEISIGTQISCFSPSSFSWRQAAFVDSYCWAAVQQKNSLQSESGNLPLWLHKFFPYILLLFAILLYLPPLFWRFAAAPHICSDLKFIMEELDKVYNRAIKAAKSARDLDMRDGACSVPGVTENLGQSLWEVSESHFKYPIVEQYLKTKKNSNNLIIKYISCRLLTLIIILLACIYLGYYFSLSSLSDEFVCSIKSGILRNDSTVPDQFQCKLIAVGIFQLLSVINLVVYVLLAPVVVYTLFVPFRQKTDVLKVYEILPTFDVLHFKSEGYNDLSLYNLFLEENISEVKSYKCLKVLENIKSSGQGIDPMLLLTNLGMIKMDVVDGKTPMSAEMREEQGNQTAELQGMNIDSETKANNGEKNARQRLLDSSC
T1 sequence (Q9JIP4 whole entry): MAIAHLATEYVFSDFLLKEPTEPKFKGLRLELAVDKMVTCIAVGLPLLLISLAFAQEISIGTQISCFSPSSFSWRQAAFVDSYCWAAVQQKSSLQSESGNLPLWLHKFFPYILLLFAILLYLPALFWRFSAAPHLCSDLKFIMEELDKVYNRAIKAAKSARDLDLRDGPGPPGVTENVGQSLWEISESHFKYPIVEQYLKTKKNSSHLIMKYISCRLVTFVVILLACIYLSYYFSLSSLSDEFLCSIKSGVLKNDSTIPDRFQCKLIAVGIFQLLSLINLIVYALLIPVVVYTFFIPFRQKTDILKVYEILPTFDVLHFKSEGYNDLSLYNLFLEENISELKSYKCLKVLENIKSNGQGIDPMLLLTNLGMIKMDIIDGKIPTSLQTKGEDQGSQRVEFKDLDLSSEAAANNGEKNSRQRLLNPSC

Structure (SMILES)	helicity [1] [%]	decrease of HOS-induced Yo-Pro-1 uptake [2] [%]	cytotoxicity (extracellular LDH) [3]	thermal stability of α-helical profile (CD at varying temperatures) [4]	fold longer half-life in human plasma compared to ^10Panx1 [5] [fold]	half-life t1/2 in human plasma ([5]; 37 °C) [h]	inhibition at 100 µM [6] [%]	inhibition at 100 µM [7] [%]	inhibition of Yo-Pro-1 uptake ([2]; 2.5 mM, 30 min)	inhibition of ATP release in H9c2 cells [8]	reduction of HOS-induced ATP release from EA.hy926 cells ([6]; 2.5 mM)	reduction of HOS-induced ATP release ([7]; 2.5 mM, B16-BL6 cells, 30 min HOS) [%]	only identified metabolite (lysine of solubilizing tail cleaved) present in solution ([5]; after 24 h, human plasma, 37 °C)	reduction of HOS-induced ATP release from EA.hy926 cells ([6]; 12.5 µM)	water solubility [9]
CC(=O)N[C@@H](CO)C(=O)N[C@@H](Cc1c[nH]c2ccccc12)C(=O)N[C@@H](CCCNC(=N)N)C(=O)N[C@@H](CCC(N)=O)C(=O)N[C@@H](C)C(=O)N[C@H]1Cc2cn(nn2)CCCC[C@@H](C(=O)N[C@@H](Cc2ccc(O)cc2)C(N)=O)NC(=O)[C@H](CC(=O)O)NC(=O)[C@H](C(C)C)NC(=O)[C@H](Cc2ccccc2)NC1=O [SBL-PX1-42]	56	26	no cytotoxicity	high thermal stability	30	1.102 ± 0.00867	26	39	–	–	–	–	–	–	–
CCCN(CCC)S(=O)(=O)c1ccc(C(=O)O)cc1 [Pbn, probenecid, reference compound]	–	–	no cytotoxicity	–	–	–	–	–	final lower level than the basal Tyrode conditions	No inhibition	around 35%	61	–	–	–
CC(=O)N[C@H]1Cc2cn(nn2)CCCC[C@@H](C(=O)N[C@@H](C)C(=O)N[C@@H](Cc2ccccc2)C(=O)N[C@H](C(=O)N[C@@H](CC(=O)O)C(=O)N[C@@H](CO)C(=O)N[C@@H](Cc2ccc(O)cc2)C(N)=O)C(C)C)NC(=O)[C@H](CCC(N)=O)NC(=O)[C@H](CCCNC(=N)N)NC(=O)[C@H](Cc2c[nH]c3ccccc23)NC1=O [SBL-PX1-44]	41	27	no cytotoxicity	–	30	1.04 ± 0.0418	41	33	–	–	–	–	–	–	–
CC(C)[C@@H]1NC(=O)[C@H](Cc2ccccc2)NC(=O)[C@@H](NC(=O)[C@@H]2CCCCn3cc(nn3)C[C@H](NC(=O)CCCCCNC(=O)[C@@H](N)CCCCN)C(=O)N[C@@H](Cc3c[nH]c4ccccc34)C(=O)N[C@@H](CCCNC(=N)N)C(=O)N[C@@H](CCC(N)=O)C(=O)N2)Cc2cn(nn2)CCCC[C@@H](C(=O)N[C@@H](Cc2ccc(O)cc2)C(N)=O)NC(=O)[C@H](CC(=O)O)NC1=O [SBL-PX1-206] (H-K[Ahx][Pra]WRQ[Lys(N3)][Pra]FVD[Lys(N3)]Y-NH2; triazole 3-7, 8-12 (inferred))	44	–	–	–	–	–	15	–	–	–	–	–	around 80%	about 25%	water-soluble
